Series [1] in a line: Compound cytotoxicity, XTT-based colorimetric assay. Format: cell-based. As to conditions: human; uninfected MT2 cells, day 4, XTT. The method, boiled down:
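Run under the antiviral-assay protocol but without virus. Viability was read on day 4 and CC50 values were derived from the readout.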
(Tetrazolium assays rely on reduction of a dye to a coloured formazan, in cell work by metabolically active cells.)

Series [2] has as its system recombinant NL4-3 virus (Renilla luciferase) in MT-2 cells. In words: HIV cell culture assay (antiviral activity, luciferase readout). It counts as cell-based. As to conditions: Renilla, NL43. The essentials: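 MT-2 cells were infected with recombinant NL4-3 virus carrying Renilla luciferase in place of part of nef. Cells were cultured 4–5 days with serially diluted compound, and luciferase was measured with a live-cell substrate. EC50 was calculated from the median effect equation.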

The source of these data is patent US11541055B2, “Inhibitors of human immunodeficiency virus replication” (ViiV Healthcare UK (No. 5) LIMITED, priority 2018, dated 2023).

Broadly, the CC50 is the concentration giving 50% cytotoxicity. The low end stands for harm at low concentration, the high end for better tolerance by the cells. Broadly, the EC50 is the concentration that produces a half-maximal response.

For `Cn1nc(NS(C)(=O)=O)c2c(Cl)ccc(-n3c([C@H](Cc4cc(F)cc(F)c4)NC(=O)Cn4nc(C(F)F)c5c4C(F)(F)[C@@H]4C[C@H]54)nc4cc(-c5ccnc(C(C)(C)C)n5)ccc4c3=O)c21` (atropisomer, axis not shown; (P)) [Example 72, N—((S)-1-(7-(2-(tert-butyl)pyrimidin-4-yl)-(3P)-3-(4-chloro-1-methyl-3-(methylsulfonamido)-1H-indazol-7-yl)-4-oxo-3,4-dihydroquinazolin-2-yl)-2-(3,5-difluorophenyl)ethyl)-2-((3bS,4aR)-3-(difluoromethyl)-5,5-difluoro-3b,4,4a,5-tetrahydro-1H-cyclopropa[3,4]cyclopenta[1,2-c]pyrazol-1-yl)acetamide], the CC50 at 4 days in series [1] is > 500 nM. The EC50 in series [2] worked out at 0.43 nM.

`Cn1nc(NS(C)(=O)=O)c2c(Cl)ccc(-n3c([C@H](Cc4cc(F)cc(F)c4)NC(=O)Cn4nc(C(F)F)c5c4C(F)(F)[C@@H]4C[C@H]54)nc4cc(-c5ccnc(C6CCCC6)n5)ccc4c3=O)c21` (atropisomer, axis not shown; (P)) [Example 73, N—((S)-1-((3P)-3-(4-chloro-1-methyl-3-(methylsulfonamido)-1H-indazol-7-yl)-7-(2-cyclopentylpyrimidin-4-yl)-4-oxo-3,4-dihydroquinazolin-2-yl)-2-(3,5-difluorophenyl)ethyl)-2-((3bS,4aR)-3-(difluoromethyl)-5,5-difluoro-3b,4,4a,5-tetrahydro-1H-cyclopropa[3,4]cyclopenta[1,2-c]pyrazol-1-yl)acetamide]: the CC50 at 4 days in series [1] is > 500 nM. For the same compound, the EC50 in series [2] came to 0.96 nM.

Take `COCc1nccc(-c2ccc3c(=O)n(-c4ccc(Cl)c5c(NS(C)(=O)=O)nn(C)c45)c([C@H](Cc4cc(F)cc(F)c4)NC(=O)Cn4nc(C(F)F)c5c4C(F)(F)[C@@H]4C[C@H]54)nc3c2)n1` (atropisomer, axis not shown; (P)) [Example 74, N—((S)-1-((3P)-3-(4-chloro-1-methyl-3-(methylsulfonamido)-1H-indazol-7-yl)-7-(2-(methoxymethyl)pyrimidin-4-yl)-4-oxo-3,4-dihydroquinazolin-2-yl)-2-(3,5-difluorophenyl)ethyl)-2-((3bS,4aR)-3-(difluoromethyl)-5,5-difluoro-3b,4,4a,5-tetrahydro-1H-cyclopropa[3,4]cyclopenta[1,2-c]pyrazol-1-yl)acetamide]: the CC50 at 4 days in series [1] is > 500 nM. Further, the EC50 in series [2] was determined as 0.079 nM.

For `COCc1nc(C)cc(-c2ccc3c(=O)n(-c4ccc(Cl)c5c(NS(C)(=O)=O)nn(C)c45)c([C@H](Cc4cc(F)cc(F)c4)NC(=O)Cn4nc(C(F)F)c5c4C(F)(F)[C@@H]4C[C@H]54)nc3c2)n1` (atropisomer, axis not shown; (P)) [Example 75, N—((S)-1-((3P)-3-(4-chloro-1-methyl-3-(methylsulfonamido)-1H-indazol-7-yl)-7-(2-(methoxymethyl)-6-methylpyrimidin-4-yl)-4-oxo-3,4-dihydroquinazolin-2-yl)-2-(3,5-difluorophenyl)ethyl)-2-((3bS,4aR)-3-(difluoromethyl)-5,5-difluoro-3b,4,4a,5-tetrahydro-1H-cyclopropa[3,4]cyclopenta[1,2-c]pyrazol-1-yl)acetamide], the CC50 at 4 days in series [1] is > 500 nM. In series [2], the EC50 stood at 0.077 nM.

With `Cn1nc(NS(C)(=O)=O)c2c(Cl)ccc(-n3c([C@H](Cc4cc(F)cc(F)c4)NC(=O)Cn4nc(C(F)F)c5c4C(F)(F)[C@@H]4C[C@H]54)nc4cc(-c5ccnc(C6CCC6)n5)ccc4c3=O)c21` (atropisomer, axis not shown; (P)) [Example 76, N—((S)-1-((3P)-3-(4-chloro-1-methyl-3-(methylsulfonamido)-1H-indazol-7-yl)-7-(2-cyclobutylpyrimidin-4-yl)-4-oxo-3,4-dihydroquinazolin-2-yl)-2-(3,5-difluorophenyl)ethyl)-2-((3bS,4aR)-3-(difluoromethyl)-5,5-difluoro-3b,4,4a,5-tetrahydro-1H-cyclopropa[3,4]cyclopenta[1,2-c]pyrazol-1-yl)acetamide], the CC50 at 4 days in series [1] was > 500 nM. Also, the EC50 in series [2] amounted to 0.18 nM.

For the compound `Cc1ncc(C)c(-c2ccc3c(=O)n(-c4ccc(Cl)c5c(NS(C)(=O)=O)nn(C)c45)c([C@H](Cc4cc(F)cc(F)c4)NC(=O)Cn4nc(C(F)F)c5c4C(F)(F)[C@@H]4C[C@H]54)nc3c2)n1` (atropisomer, axis not shown; (P)) [Example 77, N—((S)-1-((3P)-3-(4-chloro-1-methyl-3-(methylsulfonamido)-1H-indazol-7-yl)-7-(2,5-dimethylpyrimidin-4-yl)-4-oxo-3,4-dihydroquinazolin-2-yl)-2-(3,5-difluorophenyl)ethyl)-2-((3bS,4aR)-3-(difluoromethyl)-5,5-difluoro-3b,4,4a,5-tetrahydro-1H-cyclopropa[3,4]cyclopenta[1,2-c]pyrazol-1-yl)acetamide], the CC50 at 4 days in series [1] is > 500 nM. Moreover, in series [2], the EC50 is 0.071 nM.

For `Cn1nc(NS(C)(=O)=O)c2c(Cl)ccc(-n3c([C@H](Cc4cc(F)cc(F)c4)NC(=O)Cn4nc(C(F)F)c5c4C(F)(F)[C@@H]4C[C@H]54)nc4cc(-c5ccnc(C6CC6)n5)ccc4c3=O)c21` (atropisomer, axis not shown; (P)) [Example 78, N—((S)-1-((3P)-3-(4-chloro-1-methyl-3-(methylsulfonamido)-1H-indazol-7-yl)-7-(2-cyclopropylpyrimidin-4-yl)-4-oxo-3,4-dihydroquinazolin-2-yl)-2-(3,5-difluorophenyl)ethyl)-2-((3bS,4aR)-3-(difluoromethyl)-5,5-difluoro-3b,4,4a,5-tetrahydro-1H-cyclopropa[3,4]cyclopenta[1,2-c]pyrazol-1-yl)acetamide], the CC50 at 4 days in series [1] is > 500 nM. For the same compound, the EC50 in series [2] amounted to 0.16 nM.

For the compound `Cn1nc(NS(C)(=O)=O)c2c(Cl)ccc(-n3c([C@H](Cc4cc(F)cc(F)c4)NC(=O)Cn4nc(C(F)F)c5c4C(F)(F)[C@@H]4C[C@H]54)nc4cc(-c5cc(C(F)(F)F)ccn5)ccc4c3=O)c21` (atropisomer, axis not shown; (P)) [Example 80, N—((S)-1-((3P)-3-(4-chloro-1-methyl-3-(methylsulfonamido)-1H-indazol-7-yl)-4-oxo-7-(4-(trifluoromethyl)pyridin-2-yl)-3,4-dihydroquinazolin-2-yl)-2-(3,5-difluorophenyl)ethyl)-2-((3bS,4aR)-3-(difluoromethyl)-5,5-difluoro-3b,4,4a,5-tetrahydro-1H-cyclopropa[3,4]cyclopenta[1,2-c]pyrazol-1-yl)acetamide], the 50% cytotoxic concentration (CC50) at 4 days in series [1] was > 100 nM. In addition, in series [2], the EC50 stood at 0.2 nM.

As for `Cc1nccc(-c2ccc3c(=O)n(-c4ccc(Cl)c5c(NS(=O)(=O)C6CC6)nn(CC(F)F)c45)c([C@H](Cc4cc(F)cc(F)c4)NC(=O)Cn4nc(C(F)F)c5c4C(F)(F)[C@@H]4C[C@H]54)nc3c2)n1` (atropisomer, axis not shown; (P)) [Example 81, N—((S)-1-((3P)-3-(4-chloro-3-(cyclopropanesulfonamido)-1-(2,2-difluoroethyl)-1H-indazol-7-yl)-7-(2-methylpyrimidin-4-yl)-4-oxo-3,4-dihydroquinazolin-2-yl)-2-(3,5-difluorophenyl)ethyl)-2-((3bS,4aR)-3-(difluoromethyl)-5,5-difluoro-3b,4,4a,5-tetrahydro-1H-cyclopropa[3,4]cyclopenta[1,2-c]pyrazol-1-yl)acetamide], the CC50 at 4 days in series [1] is > 500 nM. Further, the EC50 in series [2] amounted to 0.092 nM.

Turning to `CCc1cc(C)nc(-c2ccc3c(=O)n(-c4ccc(Cl)c5c(NS(=O)(=O)C6CC6)nn(CC(F)F)c45)c([C@H](Cc4cc(F)cc(F)c4)NC(=O)Cn4nc(C(F)F)c5c4C(F)(F)[C@@H]4C[C@H]54)nc3c2)n1` (atropisomer, axis not shown; (P)) [Example 82, N—((S)-1-((3P)-3-(4-chloro-3-(cyclopropanesulfonamido)-1-(2,2-difluoroethyl)-1H-indazol-7-yl)-7-(4-ethyl-6-methylpyrimidin-2-yl)-4-oxo-3,4-dihydroquinazolin-2-yl)-2-(3,5-difluorophenyl)ethyl)-2-((3bS,4aR)-3-(difluoromethyl)-5,5-difluoro-3b,4,4a,5-tetrahydro-1H-cyclopropa[3,4]cyclopenta[1,2-c]pyrazol-1-yl)acetamide], the CC50 at 4 days in series [1] is > 500 nM. Further, the EC50 in series [2] is 0.25 nM.

Regarding `Cc1cc(C)nc(-c2ccc3c(=O)n(-c4ccc(Cl)c5c(NS(=O)(=O)C6CC6)nn(CC(F)F)c45)c([C@H](Cc4cc(F)cc(F)c4)NC(=O)Cn4nc(C(F)F)c5c4C(F)(F)[C@@H]4C[C@H]54)nc3c2)c1` (atropisomer, axis not shown; (P)) [Example 83, N—((S)-1-((3P)-3-(4-chloro-3-(cyclopropanesulfonamido)-1-(2,2-difluoroethyl)-1H-indazol-7-yl)-7-(4,6-dimethylpyridin-2-yl)-4-oxo-3,4-dihydroquinazolin-2-yl)-2-(3,5-difluorophenyl)ethyl)-2-((3bS,4aR)-3-(difluoromethyl)-5,5-difluoro-3b,4,4a,5-tetrahydro-1H-cyclopropa[3,4]cyclopenta[1,2-c]pyrazol-1-yl)acetamide], the CC50 at 4 days in series [1] is > 500 nM. Further, the EC50 in series [2] amounted to 0.44 nM.

As for `O=C(Cn1nc(C(F)F)c2c1C(F)(F)[C@@H]1C[C@H]21)N[C@@H](Cc1cc(F)cc(F)c1)c1nc2cc(-c3nccc(C(F)(F)F)n3)ccc2c(=O)n1-c1ccc(Cl)c2c(NS(=O)(=O)C3CC3)nn(CC(F)F)c12` (atropisomer, axis not shown; (P)) [Example 84, N—((S)-1-((3P)-3-(4-chloro-3-(cyclopropanesulfonamido)-1-(2,2-difluoroethyl)-1H-indazol-7-yl)-4-oxo-7-(4-(trifluoromethyl)pyrimidin-2-yl)-3,4-dihydroquinazolin-2-yl)-2-(3,5-difluorophenyl)ethyl)-2-((3bS,4aR)-3-(difluoromethyl)-5,5-difluoro-3b,4,4a,5-tetrahydro-1H-cyclopropa[3,4]cyclopenta[1,2-c]pyrazol-1-yl)acetamide], the CC50 at 4 days in series [1] was > 500 nM. Further, the EC50 in series [2] is 0.22 nM.
